Row | melting point [°C] | Compound
1 | 97 | C#CC(C)(CC)OC(=O)c1ccccc1C(=O)O (stereo not given)
2 | 208 | CC(=O)SC1CC2=CC(=O)CCC2(C)C2CCC3(C)C(CCC34CCC(=O)O4)C12 (stereo not given)
3 | 127 | Cc1ccc(C(C)C)c(O)c1C(=O)O
4 | -66.5 | CCc1cc(CC)cc(CC)c1
5 | 253 | CC(C)(C)NC(=O)C1CCC2C3CCC4NC(=O)C=CC4(C)C3CCC12C (stereo not given)
6 | 42 to 44 | COC(=O)Cc1nc(-c2ccccc2)sc1C
7 | 24.5 | CCCCN(C(C)=O)c1ccccc1
8 | 141 to 143 | C(=C\c1nn2c(COc3ccccc3)nnc2s1)/c1ccccc1
9 | 80 to 82 | Cc1cc(Oc2ncccc2[N+](=O)[O-])cc(C)c1Cl
10 | 177 | Cc1c(C(N)=O)cc([N+](=O)[O-])cc1[N+](=O)[O-]
11 | 37 to 38 | Cc1ccc(OCCBr)cc1
12 | 149 | Nc1c(F)cc(O)cc1F
13 | 175 to 185 | O=[N+]([O-])c1cccc2c(Br)n[nH]c12
14 | 330 | Oc1ncc(O)c(O)n1
15 | 190 to 195 | Fc1c(F)c(F)c(P(CCP(c2c(F)c(F)c(F)c(F)c2F)c2c(F)c(F)c(F)c(F)c2F)c2c(F)c(F)c(F)c(F)c2F)c(F)c1F
16 | 99 to 101 | CCOC(=O)CSc1nc(C)n[nH]1
17 | -80.6 | CCN(C#N)CC
18 | 84 to 86 | CCOC(=O)CNc1ccc(I)cc1
19 | 124 | NC(=O)c1cccc(C(F)(F)F)c1
20 | 176 | O=C(NCCc1c[nH]cn1)C1=NC=NC1
21 | 131 | CC1(C)CC(O)CC(C)(C)N1
22 | 55 | COCCCNc1nc(NCCCOC)nc(SC)n1
23 | 56 to 57 | OCc1ccc(-c2ccco2)s1
24 | 135 to 137 | BrCc1ccc(-c2csnn2)cc1

Row | melting point [°C] | Compound
25 | 2 | Cc1ccccc1CCO
26 | 111 to 112 | Nc1ccccc1NC1CCN(Cc2ccccc2)CC1
27 | 160 | O=C1/C(=C/c2ccc([N+](=O)[O-])cc2)SC(=S)N1CN1CCCCC1
28 | 268 | N#Cc1ccc(C(Cl)=Cc2cccc(C=C(Cl)c3ccc(C#N)cc3[N+](=O)[O-])c2)c([N+](=O)[O-])c1
29 | -9 | CCc1cccc(Cc2ccccc2)c1
30 | 58 to 60 | Cc1ccc(CCl)c2ccccc12
31 | 85.3 | N=C1NCCS1
32 | 157 to 158 | O=C(CBr)c1cc(-c2ccc(Cl)cc2)no1
33 | 135 to 137 | CC(=O)c1c(C)c(C(=O)O)n(C)c1C
34 | -55 | COCCCl
35 | 61 | Cn1cnc2ccccc21
36 | -6 | Brc1ccc(Br)s1
37 | 90 to 92 | O=C(N=C=S)c1ccc([N+](=O)[O-])cc1
38 | 167 to 171 | CN(C)c1ccc(N=Nc2ccc(N=C=S)cc2)cc1
39 | -30 | SC1CCCCC1
40 | 97 to 98 | Cc1[nH]nc(C(F)(F)C(F)(F)C(F)(F)F)c1[N+](=O)[O-]
41 | 16.4 | CCCCCCC(=O)c1ccccc1
42 | 242 | CC1=NNC(=O)C1=Cc1c(O)c2cccc(C)c2[nH]c1=O
43 | 158 | COc1ccccc1C1(C)CCc2oc3ccccc3c2-c2oc(C)cc21 (stereo not given)
44 | 90 | CCOc1ccc2ccc(=O)oc2c1
45 | 170 | CCCCOC(=O)C1=C(C)NC(=O)NC1c1ccco1 (stereo not given)
46 | 227 | CC1=NNC(=N)Nc2c1c(=O)n(-c1ccccc1)c1ccccc21
47 | 170 | O=C(NC(c1ccccc1)C(O)C(=O)O)c1ccccc1 (stereo not given)
48 | 189 to 193 | CNS(=O)(=O)O

Row | melting point [°C] | Compound
49 | 98.5 | O=C(c1ccccc1)c1cccc(C(=O)c2ccccc2)c1
50 | 98 to 99 | COc1ccccc1-c1ccc(C=CC(=O)c2ccccc2)o1
51 | 159 | COC(=O)C=Cc1ccc(C=CC(=O)OC)c(N)c1
52 | 90 | CC(=O)C(CC(=O)c1ccccc1)C(=O)c1ccccc1 (stereo not given)
53 | 294 | N#C/C(=C/c1cccc(O)c1)c1nc2ccccc2c(=O)[nH]1
54 | 67 | COC(=O)c1ccc([N+](=O)[O-])cc1C(=O)OC
55 | 105 | CCCCCCCCOC1OC(CO)C(O)C(O)C1O (stereo not given)
56 | 55.5 to 59.5 | O=C(Oc1c(F)c(F)c(F)c(F)c1F)c1sccc1C1OCCO1
57 | 92 | Cc1c[nH]c(C)n1
58 | 66 to 67 | COC(=O)c1cc2ccccc2n1C(=O)OC(C)(C)C
59 | 69 to 75 | CC(=O)Oc1ccc([N+](=O)[O-])cc1[N+](=O)[O-]
60 | 116 | O=C1c2ccccc2C(=O)N1Cc1ccccc1
61 | 96 to 100 | CN1CCOc2cc(C(=O)Cl)ccc21
62 | 124 | Brc1ccc(I)cn1
63 | -75 | CCOCCC(=O)OCC
64 | 261 | O=C(O)c1cncc(-c2cccs2)c1
65 | 112 | OCC#CC#CCO
66 | 78 | COC(=O)C(NC(=O)OCc1ccccc1)P(=O)(OC)OC (stereo not given)
67 | -69 | CC(C)C(=O)C(C)C
68 | 218 to 221 | CC1C(=O)C23C(O)CC4C(C)(C)CCCC45COC(CC1C2O)C53 (stereo not given)
69 | 95.5 | Cc1cc(O)c(Cl)c(C)c1Cl
70 | 93 | Cc1cc(C)cc(S(=O)(=O)Cl)c1
71 | 134 | ON=Cc1cccc2c(Br)cccc12
72 | 70.5 | Clc1ccc(OCOc2ccc(Cl)cc2)cc1

Row | melting point [°C] | Compound
73 | 92 | CC(O)C(O)(c1ccccc1)c1ccccc1 (stereo not given)
74 | 37 to 40 | Cc1ccc(Cl)c(N)c1Cl
75 | 109 to 111 | CSc1ncc(CO)n1Cc1ccccc1
76 | 180 | CC(=O)c1c(O)c(C(C)(C)C)cc(C(C)(C)C)c1O
77 | 184 | CCCCc1nc(Cl)c(CO)n1Cc1ccc(-c2ccccc2-c2nn[nH]n2)cc1
78 | 98 to 99 | Cc1ccc2sc(C=O)cc2c1
79 | 49 to 51 | S=C=Nc1cc(Br)ccc1Br
80 | 84 to 88 | O=C(C=Cc1ccc(F)cc1)c1ccccc1
81 | -74 | CCOCCOCC
82 | 122 | FC(F)(F)c1nn(CN2CCCCC2)c(=S)n1N=Cc1ccc2c(c1)OCO2
83 | 164 to 165 | O=C(C=Cc1ccc(-c2ccc(Br)cc2)o1)c1ccco1
84 | 275 | O=C1NN(c2ccccc2)C(=O)/C1=C/c1ccccc1
85 | 85 to 87 | O=C(Cl)c1csc(-c2cccc(Cl)c2)n1
86 | 50 | O=C1Cc2ccccc2O1
87 | 104 | Cc1cccc(OCC(=O)O)c1
88 | 241 | O=c1oc(-c2c(F)cccc2Cl)cc2ccccc12
89 | 173 to 174 | Cn1nc(-c2cccs2)cc1C(=O)O
90 | 46.5 | Cc1ccc(C(C)(C)C)c(O)c1
91 | 193 to 194 | CC12CC(c3ccccc3)C([N+](=O)[O-])C(O1)c1ccccc1N2 (stereo not given)
92 | 88 | COc1ccc2c(c1)OC(c1ccccc1)CC2=O (stereo not given)
93 | 73 | Cc1nc(CO)c(C)o1
94 | 121 | Cc1n[nH]c(C)c1Br
95 | 176 | CC(=O)Nc1cc(CCNC(=O)c2ccccc2)ccc1CCNC(=O)c1ccccc1
96 | 119 to 120 | COC(=O)c1ccc(C=CC(=O)c2ccccc2)cc1

Row | melting point [°C] | Compound
97 | 18 | C#CC(C)(C)N
98 | 208 | CC(C=CC=C(C)C=CC12OC1(C)CC(O)CC2(C)C)=CC=CC=C(C)C=CC=C(C)C=CC12OC1(C)CC(O)CC2(C)C (stereo not given)
99 | 233 | CC(=O)N(c1ccccc1)c1cc(N(C(C)=O)c2ccccc2)c([N+](=O)[O-])cc1[N+](=O)[O-]
100 | 145 to 146 | CCOC(=O)c1cc(I)c(N)c(I)c1
101 | 32 | COc1ccc(C#N)c(OC(F)(F)F)c1
102 | 152 to 155 | Cc1nc([N+](=O)[O-])c(Br)n1CCC#N
103 | 220 | O=[N+]([O-])c1ccc(-c2nnc3n2NC(c2ccccc2)S3)cc1 (stereo not given)
104 | 78 | CC(=O)CC(=O)c1ccc2ccccc2c1
105 | 129 | Cc1cc(=O)oc2cc(OCC(=O)Cl)ccc12
106 | 46.2 | OCCC(F)(F)C(F)(F)C(F)(F)C(F)(F)C(F)(F)C(F)(F)C(F)(F)C(F)(F)F
107 | -42.8 | CC(=O)CC(C)(C)O
108 | 91 | CCCC(=O)c1ccc(O)cc1
109 | 186 to 188 | CN(C)C(=O)[C@@H](O)[C@H](O)C(=O)N(C)C
110 | 148 | NC(=O)Oc1ccc(Cc2ccccc2)cc1
111 | 99 to 101 | CCCc1cc(C(C)=O)c(O)cc1O
112 | 206 to 208 | Nc1nc(-c2ccc(O)cc2)cs1
113 | 142 | CCOC(=O)c1[nH]c(C)c(Br)c1C
114 | 118 to 121 | O=C(O)[C@H](O)c1ccccc1Cl
115 | 158 | Nc1cccc([N+](=O)[O-])c1N
116 | 55 | CCCCCCCCCCCCCCCCOCCCCCCCCCCCCCCCC
117 | 81 | COC(=O)CC1CCC(NC(=O)OC(C)(C)C)CC1 (stereo not given)

Row | Compound | melting point [°C]
118 | O=[N+]([O-])c1nc[nH]n1 | 212 to 214
119 | C=CCC1(C2C=CCCC2)C(=O)NC(=S)NC1=O (stereo not given) | 148
120 | COC(=O)c1c(C(F)F)nc(C(F)(F)F)c(C2=NCCS2)c1CC(C)C | 78
121 | CC1=C(C)C(=O)C(C)=C(C)C1=O | 112
122 | Cc1cc(C)cc(C(=O)N(NC(=O)c2ccccc2)C(C)(C)C)c1 | 206
123 | CC12CCC3C(CCC4CC5(CCC43C)OCCO5)C1CCC2O (stereo not given) | 212
124 | CC(C)CCCCCOC(=O)c1ccccc1C(=O)OCCCCCC(C)C | -4
125 | O=C(CBr)c1ccc(Cl)c(Cl)c1 | 57
126 | N=C(NCCCC(N)C(=O)O)N[N+](=O)[O-] (stereo not given) | 257
127 | FC(F)=C(Cl)C(F)(F)F | -130
128 | c1ccc(P(C2CCCCC2)C2CCCCC2)cc1 | 59.5
129 | CCCCC(CC)COP(=O)(Oc1ccccc1)Oc1ccccc1 (stereo not given) | -54
130 | C[C@]12CC[C@H]3[C@@H](CCC4=CC(=O)CC[C@@]43C)[C@@H]1CC[C@@H]2C(=O)O | 254

Reference: a melting point compilation (Tetko et al.)
